# Measurements published in patent US12570695B2, “Bicyclic peptide ligands specific for EphA2” (priority 2019, dated 2026).
# Starred links: 1 amine or outer side, 2 acyl side, 3 side chain; linkers in the order of their positions; H or OH if unused. Positions of bridges follow the written chain, without caps; N, C: chain ends. Non-standard residues stand in square brackets, D forms with d. Residues, ends and D or L forms follow the SMILES beside them. TATA = O=C(CC[*:1])N1CN(C(=O)CC[*:2])CN(C(=O)CC[*:3])C1; Dip = N[C@H](C(=O)O)C(c1ccccc1)c1ccccc1; 1Nal = N[C@@H](Cc1cccc2ccccc12)C(=O)O; Hyp = O=C(O)[C@@H]1C[C@@H](O)CN1; hArg = N=C(N)NCCCC[C@H](N)C(=O)O; Aad = N[C@@H](CCCC(=O)O)C(=O)O; dNle = CCCC[C@@H](N)C(=O)O; Nle = CCCC[C@H](N)C(=O)O; Mpa = O=C(O)CCS
# Molecular target: human EphA2 (Homo sapiens, UniProt P29317)
# Experiment: biochemical
# Experimental: Peptides without a fluorescent tag were tested in competition with a peptide with a fluorescent tag and a known Kd.
# Peptides were diluted to an appropriate concentration in assay buffer as described in the direct binding assay with a maximum of 5% DMSO, then serially diluted 1 in 2. […] Measurements were conducted, however the gain was determined prior to the first measurement. Data analysis was in Systat Sigmaplot version 12.0 where the mP values were fit to a user defined cubic equation to generate a Ki value:
# “Lig”, “KLig” and “Prot” were all defined values relating to: fluorescent peptide concentration, the Kd of the fluorescent peptide and EphA2 concentration respectively.
# human EphA2, sequence (P29317 24-976): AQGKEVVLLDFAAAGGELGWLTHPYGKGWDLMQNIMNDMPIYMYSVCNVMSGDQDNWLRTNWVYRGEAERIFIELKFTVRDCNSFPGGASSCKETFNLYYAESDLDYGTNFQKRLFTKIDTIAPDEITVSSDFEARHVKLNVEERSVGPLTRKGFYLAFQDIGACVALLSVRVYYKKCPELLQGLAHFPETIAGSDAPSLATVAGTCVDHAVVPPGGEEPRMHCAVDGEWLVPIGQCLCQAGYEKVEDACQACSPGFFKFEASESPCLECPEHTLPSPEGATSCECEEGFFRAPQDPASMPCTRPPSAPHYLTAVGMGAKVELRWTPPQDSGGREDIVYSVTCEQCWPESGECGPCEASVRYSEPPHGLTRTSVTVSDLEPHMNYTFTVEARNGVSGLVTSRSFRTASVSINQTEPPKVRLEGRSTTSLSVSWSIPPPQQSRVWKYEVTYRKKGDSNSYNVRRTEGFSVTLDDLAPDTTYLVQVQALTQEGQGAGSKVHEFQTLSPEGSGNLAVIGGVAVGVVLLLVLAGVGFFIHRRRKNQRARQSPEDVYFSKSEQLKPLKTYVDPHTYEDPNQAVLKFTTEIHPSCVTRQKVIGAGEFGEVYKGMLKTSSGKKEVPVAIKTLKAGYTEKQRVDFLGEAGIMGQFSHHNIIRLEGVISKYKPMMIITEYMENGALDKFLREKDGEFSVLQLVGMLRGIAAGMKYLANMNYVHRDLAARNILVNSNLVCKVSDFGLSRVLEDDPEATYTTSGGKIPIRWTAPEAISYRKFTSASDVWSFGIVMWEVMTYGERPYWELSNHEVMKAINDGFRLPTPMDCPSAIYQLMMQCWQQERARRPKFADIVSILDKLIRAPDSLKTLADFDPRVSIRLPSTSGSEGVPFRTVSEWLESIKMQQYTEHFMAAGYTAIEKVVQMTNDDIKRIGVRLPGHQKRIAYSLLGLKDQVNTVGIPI
row,Compound,Ki [nM]
1,"CC(C)C[C@@H]1NC(=O)[C@@H]2CSCCC(=O)N3CN(CN(C3)C(=O)CCSC[C@H](NC(=O)[C@H](CC(=O)O)NC(=O)[C@H](CCCCNC(=N)N)NC(=O)[C@H](C)N)C(=O)N3C[C@H](O)C[C@H]3C(=O)N[C@@H](CC(C)C)C(=O)N[C@@H](C(C)C)C(=O)N[C@@H](CC(N)=O)C(=O)N3CCC[C@H]3C(=O)N[C@@H](CC(C)C)C(=O)N2)C(=O)CCSC[C@@H](C(N)=O)NC(=O)[C@H]([C@@H](C)O)NC(=O)[C@H](Cc2c[nH]c3ccccc23)NC(=O)[C@@H](CC(=O)O)NC(=O)[C@@H]2CCCN2C(=O)[C@H](Cc2c[nH]cn2)NC1=O [BCY12855, A-[HArg]-D-Ci[HyP]LVNPLCiiLHP[dD]WTCiii] (H-A[hArg]DC[Hyp]LVNPLCLHP[dD]WTC-NH2; linker 4-11-18 via TATA; N-terminus and C-terminus assumed)",5.55
2,"CC(C)C[C@@H]1NC(=O)[C@@H]2CSCCC(=O)N3CN(CN(C3)C(=O)CCSC[C@H](NC(=O)[C@H](CC(=O)O)NC(=O)[C@H](CCC(=O)O)NC(=O)[C@@H](C)N)C(=O)N3C[C@H](O)C[C@H]3C(=O)N[C@@H](CC(C)C)C(=O)N[C@@H](C(C)C)C(=O)N[C@@H](CC(N)=O)C(=O)N3CCC[C@H]3C(=O)N[C@@H](CC(C)C)C(=O)N2)C(=O)CCSC[C@@H](C(N)=O)NC(=O)[C@H]([C@@H](C)O)NC(=O)[C@H](Cc2c[nH]c3ccccc23)NC(=O)[C@@H](CC(=O)O)NC(=O)[C@@H]2CCCN2C(=O)[C@H](CCC(=O)O)NC1=O [BCY13126, [dA]-ED-Ci[HyP]LVNPLCiiLEP[dD]WTCiii] (H-[dA]EDC[Hyp]LVNPLCLEP[dD]WTC-NH2; linker 4-11-18 via TATA; N-terminus and C-terminus assumed)",25.3
3,"CC(C)C[C@@H]1NC(=O)[C@@H]2CSCCC(=O)N3CN(CN(C3)C(=O)CCSC[C@H](N)C(=O)N3C[C@H](O)C[C@H]3C(=O)N[C@@H](CC(C)C)C(=O)N[C@@H](C(C)C)C(=O)N[C@@H](CC(N)=O)C(=O)N3CCC[C@H]3C(=O)N[C@@H](CC(C)C)C(=O)N2)C(=O)CCSC[C@@H](C(=O)N[C@H](C)C(N)=O)NC(=O)[C@H]([C@@H](C)O)NC(=O)[C@H](Cc2c[nH]c3ccccc23)NC(=O)[C@@H](CC(=O)O)NC(=O)[C@@H]2CCCN2C(=O)[C@H](CCC(=O)O)NC1=O [BCY12861, Ci[HyP]LVNPLCiiLEP[dD]WTCiii[dA]] (H-C[Hyp]LVNPLCLEP[dD]WTC[dA]-NH2; linker 1-8-15 via TATA; N-terminus and C-terminus assumed)",21.7
4,"CC(C)C[C@@H]1NC(=O)[C@@H]2CSCCC(=O)N3CN(CN(C3)C(=O)CCSC[C@H](NC(=O)[C@H](CC(=O)O)NC(=O)[C@H](CCCCNC(=N)N)NC(=O)[C@H](C)N)C(=O)N3C[C@H](O)C[C@H]3C(=O)N[C@@H](CC(C)C)C(=O)N[C@@H](C(C)C)C(=O)N[C@@H](CC(N)=O)C(=O)N3CCC[C@H]3C(=O)N[C@@H](CC(C)C)C(=O)N2)C(=O)CCSC[C@@H](C(=O)N[C@H](C)C(N)=O)NC(=O)[C@H]([C@@H](C)O)NC(=O)[C@H](Cc2c[nH]c3ccccc23)NC(=O)[C@@H](CC(=O)O)NC(=O)[C@@H]2CCCN2C(=O)[C@H](CCC(=O)O)NC1=O [BCY12857, A-[HArg]-D-Ci[HyP]LVNPLCiiLEP[dD]WTCiii[dA]] (H-A[hArg]DC[Hyp]LVNPLCLEP[dD]WTC[dA]-NH2; linker 4-11-18 via TATA; N-terminus and C-terminus assumed)",16
5,"CCCC[C@H]1NC(=O)[C@@H]2CCCN2C(=O)[C@H](Cc2c[nH]cn2)NC(=O)[C@H](CC(C)C)NC(=O)[C@@H]2CSCCC(=O)N3CN(CN(C3)C(=O)CCSC[C@H](NC(=O)[C@H](CC(=O)O)NC(=O)[C@H](CCCCNC(=N)N)NC(=O)[C@H](C)N)C(=O)N3C[C@H](O)C[C@H]3C(=O)N[C@@H](CC(C)C)C(=O)N[C@@H](C(C)C)C(=O)N[C@@H](CC(N)=O)C(=O)N3CCC[C@H]3C(=O)N[C@@H](CC(C)C)C(=O)N2)C(=O)CCSC[C@@H](C(N)=O)NC(=O)[C@H](CCCCNC(=N)N)NC(=O)[C@H](Cc2c[nH]c3ccccc23)NC1=O [BCY13134, A-[HArg]-D-Ci[HyP]LVNPLCiiLHP[dNle]W[HArg]Ciii] (H-A[hArg]DC[Hyp]LVNPLCLHP[dNle]W[hArg]C-NH2; linker 4-11-18 via TATA; N-terminus and C-terminus assumed)",1.16
6,"CC(C)C[C@@H]1NC(=O)[C@@H]2CSCCC(=O)N3CN(CN(C3)C(=O)CCSC[C@H](NC(=O)[C@H](CC(=O)O)NC(=O)[C@H](CCCCNC(=N)N)NC(=O)[C@H](C)N)C(=O)N3C[C@H](O)C[C@H]3C(=O)N[C@@H](CC(C)C)C(=O)N[C@@H](C(C)C)C(=O)N[C@@H](CC(N)=O)C(=O)N3CCC[C@H]3C(=O)N[C@@H](CC(C)C)C(=O)N2)C(=O)CCSC[C@@H](C(N)=O)NC(=O)[C@H](CCCCNC(=N)N)NC(=O)[C@H](Cc2c[nH]c3ccccc23)NC(=O)[C@@H](CC(=O)O)NC(=O)[C@@H]2CCCN2C(=O)[C@H](CCCC(=O)O)NC1=O [BCY13132, A-[HArg]-D-Ci[HyP]LVNPLCiiL[hGlu]P[dD]W[HArg]Ciii] (H-A[hArg]DC[Hyp]LVNPLCL[Aad]P[dD]W[hArg]C-NH2; linker 4-11-18 via TATA; N-terminus and C-terminus assumed)",7.08
7,"CC(C)C[C@@H]1NC(=O)[C@@H]2CSCCC(=O)N3CN(CN(C3)C(=O)CCSC[C@@H](C(=O)N[C@H](CCCCN)C(N)=O)NC(=O)[C@H]([C@@H](C)O)NC(=O)[C@H](Cc3c[nH]c4ccccc34)NC(=O)[C@@H](CC(=O)O)NC(=O)[C@@H]3CCCN3C(=O)[C@H](C(c3ccccc3)c3ccccc3)NC1=O)C(=O)CCSCCC(=O)N1C[C@H](O)C[C@H]1C(=O)N[C@@H](CC(C)C)C(=O)N[C@@H](C(C)C)C(=O)N[C@@H](CC(N)=O)C(=O)N1CCC[C@H]1C(=O)N[C@@H](CC(C)C)C(=O)N2 [BCY13129, [MerPro]i[HyP]LVNPLCiiL[3,3-DPA]P[dD]WTCiii[dK]] ([Mpa][Hyp]LVNPLCL[Dip]P[dD]WTC[dK]-NH2; linker 1-8-15 via TATA; C-terminus assumed)",1.88
8,"CC(C)C[C@@H]1NC(=O)[C@@H]2CSCCC(=O)N3CN(CN(C3)C(=O)CCSC[C@H](NC(=O)[C@H](CC(=O)O)NC(=O)[C@H](CCCCNC(=N)N)NC(=O)[C@H](C)N)C(=O)N3C[C@H](O)C[C@H]3C(=O)N[C@@H](CC(C)C)C(=O)N[C@@H](C(C)C)C(=O)N[C@@H](CC(N)=O)C(=O)N3CCC[C@H]3C(=O)N[C@@H](CC(C)C)C(=O)N2)C(=O)CCSC[C@@H](C(N)=O)NC(=O)[C@H](CCCCNC(=N)N)NC(=O)[C@H](Cc2c[nH]c3ccccc23)NC(=O)[C@@H](CC(=O)O)NC(=O)[C@@H]2CCCN2C(=O)[C@H](Cc2ccccc2)NC1=O [BCY13920, A[HArg]DCi[HyP]LVNPLCiiLFP[dD]W[HArg]Ciii] (H-A[hArg]DC[Hyp]LVNPLCLFP[dD]W[hArg]C-NH2; linker 4-11-18 via TATA; N-terminus and C-terminus assumed)",0.641
9,"CC(C)C[C@@H]1NC(=O)[C@@H]2CSCCC(=O)N3CN(CN(C3)C(=O)CCSC[C@H](N)C(=O)N3C[C@H](O)C[C@H]3C(=O)N[C@@H](CC(C)C)C(=O)N[C@@H](C(C)C)C(=O)N[C@@H](CC(N)=O)C(=O)N3CCC[C@H]3C(=O)N[C@@H](CC(C)C)C(=O)N2)C(=O)CCSC[C@@H](C(N)=O)NC(=O)[C@H]([C@@H](C)O)NC(=O)[C@H](Cc2c[nH]c3ccccc23)NC(=O)[C@@H](CC(=O)O)NC(=O)[C@@H]2CCCN2C(=O)[C@H](C(c2ccccc2)c2ccccc2)NC1=O [BCY12860, Ci[HyP]LVNPLCiiL[3,3-DPA]P[dD]WTCiii] (H-C[Hyp]LVNPLCL[Dip]P[dD]WTC-NH2; linker 1-8-15 via TATA; N-terminus and C-terminus assumed)",0.66
10,"CC(C)C[C@@H]1NC(=O)[C@@H]2CSCCC(=O)N3CN(CN(C3)C(=O)CCSC[C@H](N)C(=O)N3C[C@H](O)C[C@H]3C(=O)N[C@@H](CC(C)C)C(=O)N[C@@H](C(C)C)C(=O)N[C@@H](CC(N)=O)C(=O)N3CCC[C@H]3C(=O)N[C@@H](CC(C)C)C(=O)N2)C(=O)CCSC[C@@H](C(N)=O)NC(=O)[C@H]([C@@H](C)O)NC(=O)[C@H](Cc2c[nH]c3ccccc23)NC(=O)[C@@H](CC(=O)O)NC(=O)[C@@H]2CCCN2C(=O)[C@H](Cc2cccc3ccccc23)NC1=O [BCY13119, Ci[HyP]LVNPLCiiL[1Nal]P[dD]WTCiii] (H-C[Hyp]LVNPLCL[1Nal]P[dD]WTC-NH2; linker 1-8-15 via TATA; N-terminus and C-terminus assumed)",2.64
11,"CCCC[C@@H]1NC(=O)[C@H](CC(C)C)NC(=O)[C@@H]2CSCCC(=O)N3CN(CN(C3)C(=O)CCSC[C@H](NC(=O)[C@H](CC(=O)O)NC(=O)[C@H](CCCCNC(=N)N)NC(=O)[C@H](C)N)C(=O)N3C[C@H](O)C[C@H]3C(=O)N[C@@H](CC(C)C)C(=O)N[C@@H](C(C)C)C(=O)N[C@@H](CC(N)=O)C(=O)N3CCC[C@H]3C(=O)N[C@@H](CC(C)C)C(=O)N2)C(=O)CCSC[C@@H](C(N)=O)NC(=O)[C@H](CCCCNC(=N)N)NC(=O)[C@H](Cc2c[nH]c3ccccc23)NC(=O)[C@@H](CC(=O)O)NC(=O)[C@@H]2CCCN2C1=O [BCY13135, A-[HArg]-D-Ci[HyP]LVNPLCiiL[Nle]P[dD]W[HArg]Ciii] (H-A[hArg]DC[Hyp]LVNPLCL[Nle]P[dD]W[hArg]C-NH2; linker 4-11-18 via TATA; N-terminus and C-terminus assumed)",0.894
12,"CC(C)C[C@@H]1NC(=O)[C@@H]2CSCCC(=O)N3CN(CN(C3)C(=O)CCSC[C@H](NC(=O)[C@H](CC(=O)O)NC(=O)[C@H](CCCCNC(=N)N)NC(=O)[C@H](C)N)C(=O)N3C[C@H](O)C[C@H]3C(=O)N[C@@H](CC(C)C)C(=O)N[C@@H](C(C)C)C(=O)N[C@@H](CC(N)=O)C(=O)N3CCC[C@H]3C(=O)N[C@@H](CC(C)C)C(=O)N2)C(=O)CCSC[C@@H](C(N)=O)NC(=O)[C@H](CCCCNC(=N)N)NC(=O)[C@H](Cc2c[nH]c3ccccc23)NC(=O)[C@@H](CC(=O)O)NC(=O)[C@@H]2CCCN2C(=O)[C@H](CCC(N)=O)NC1=O [BCY14048, A[HArg]DCi[HyP]LVNPLCiiLQP[dD]W[HArg]Ciii] (H-A[hArg]DC[Hyp]LVNPLCLQP[dD]W[hArg]C-NH2; linker 4-11-18 via TATA; N-terminus and C-terminus assumed)",4.1
